The supplement of paper PMC13380429

How the values were obtained:
Conditions in all cases: 72 h
HepG2 [1] = assay: relative viability EC50 (midpoint between 100% and the lowest measured viability); higher = less toxic
U2OS [2] = assay: as above
Caco-2 [3] = assay: as above
Vero E6 [4] = assay: as above
Calu-3 [5] = assay: as above
HepG2 [6] = assay: cell viability relative to DMSO; higher = less toxic
U2OS [7] = assay: as above
Caco-2 [8] = assay: as above
Vero E6 [9] = assay: as above
Calu-3 [10] = assay: as above
HepG2 [11] = assay: drug sensitivity score (DSS) for viability; higher = more toxic; extreme values may be limits of the assay
U2OS [12] = assay: as above
Caco-2 [13] = assay: as above
Vero E6 [14] = assay: as above
Calu-3 [15] = assay: as above

Compound | relative viability EC50 (HepG2 [1]) [µM] | relative viability EC50 (U2OS [2]) [µM] | relative viability EC50 (Caco-2 [3]) [µM] | relative viability EC50 (Vero E6 [4]) [µM] | relative viability EC50 (Calu-3 [5]) [µM] | cell viability (HepG2 [6]; 1 nM) [%] | cell viability (HepG2 [6]; 10 nM) [%] | cell viability (HepG2 [6]; 100 nM) [%] | cell viability (HepG2 [6]; 1000 nM) [%] | cell viability (HepG2 [6]; 10000 nM) [%] | cell viability (U2OS [7]; 1 nM) [%] | cell viability (U2OS [7]; 10 nM) [%] | cell viability (U2OS [7]; 100 nM) [%] | cell viability (U2OS [7]; 1000 nM) [%] | cell viability (U2OS [7]; 10000 nM) [%] | cell viability (Caco-2 [8]; 1 nM) [%] | cell viability (Caco-2 [8]; 10 nM) [%] | cell viability (Caco-2 [8]; 100 nM) [%] | cell viability (Caco-2 [8]; 1000 nM) [%] | cell viability (Caco-2 [8]; 10000 nM) [%] | cell viability (Vero E6 [9]; 1 nM) [%] | cell viability (Vero E6 [9]; 10 nM) [%] | cell viability (Vero E6 [9]; 100 nM) [%] | cell viability (Vero E6 [9]; 1000 nM) [%] | cell viability (Vero E6 [9]; 10000 nM) [%] | cell viability (Calu-3 [10]; 1 nM) [%] | cell viability (Calu-3 [10]; 10 nM) [%] | cell viability (Calu-3 [10]; 100 nM) [%] | cell viability (Calu-3 [10]; 1000 nM) [%] | cell viability (Calu-3 [10]; 10000 nM) [%] | drug sensitivity score (HepG2 [11]) | drug sensitivity score (U2OS [12]) | drug sensitivity score (Caco-2 [13]) | drug sensitivity score (Vero E6 [14]) | drug sensitivity score (Calu-3 [15])
CCNC(=O)/C=C/c1cccc(Br)c1 [cinromide] | > 10 | > 10 | > 10 | > 10 | > 10 | 105 | 96.5 | 106 | 97.5 | 96.8 | 101 | 96.7 | 99 | 96.3 | 98.5 | 99.1 | 96.4 | 105 | 87.2 | 92.4 | 110 | 83.6 | 97.1 | 101 | 95.6 | 102 | 101 | 106 | 91.5 | 107 | 0 | 0 | 0.7 | 0 | 0
COc1cc(/C=C/C(N)=O)cc(OC)c1OC [cintriamide] | > 10 | > 10 | > 10 | > 10 | > 10 | 97.1 | 99.6 | 100 | 95.1 | 114 | 98.2 | 102 | 101 | 102 | 106 | 83 | 98.3 | 96 | 97.1 | 99.2 | 96.3 | 97.2 | 95.5 | 90.2 | 104 | 106 | 97.4 | 95.6 | 102 | 105 | 0 | 0 | 0 | 0 | 0
CC(=O)NC1CCSC1=O (stereo not given) [citiolone] | > 10 | > 10 | > 10 | > 10 | > 10 | 102 | 95.8 | 95.1 | 109 | 110 | 95.4 | 95.4 | 101 | 100 | 105 | 98.8 | 92.6 | 97.6 | 99.7 | 99.6 | 99.9 | 94.7 | 95.6 | 102 | 106 | 103 | 98.4 | 93.2 | 101 | 110 | 0 | 0 | 0 | 0 | 0
CC(C)(COP(=O)(O)OP(=O)(O)OC[C@H]1O[C@@H](n2cnc3c(N)ncnc32)[C@H](O)[C@@H]1OP(=O)(O)O)[C@@H](O)C(=O)NCCC(=O)NCCS [coenzyme-A] | > 10 | > 10 | > 10 | > 10 | > 10 | 109 | 96.6 | 111 | 96 | 98.4 | 96.9 | 100 | 103 | 103 | 104 | 100 | 100 | 102 | 97.8 | 110 | 108 | 102 | 92.4 | 104 | 98.9 | 100 | 101 | 96.7 | 99.8 | 102 | 0 | 0 | 0 | 0 | 0
CN(C)c1ccc(C(=C2C=CC(=[N+](C)C)C=C2)c2ccc(N(C)C)cc2)cc1 [crystal-violet] | 0.432 | 0.477 | 0.295 | 0.383 | 0.715 | 112 | 89.9 | 111 | 10.7 | 3.6 | 96.6 | 100 | 96.4 | 17.4 | -0.4 | 86.3 | 94.9 | 80.9 | 21.4 | 4.4 | 96 | 89.5 | 100 | 6.8 | -0.4 | 100 | 94 | 104 | 31.5 | 2.1 | 15.7 | 15.6 | 16.9 | 16.9 | 13.3
CCC(CC)CC1(C(=O)Nc2ccccc2SC(=O)C(C)C)CCCCC1 [dalcetrapib] | > 10 | > 10 | > 10 | > 10 | > 10 | 88.6 | 103 | 88 | 98.6 | 90.2 | 96.9 | 97.1 | 108 | 98.3 | 104 | 99.9 | 97.1 | 94.3 | 93.7 | 107 | 98.4 | 99.2 | 101 | 102 | 101 | 96 | 95.4 | 103 | 90 | 97.8 | 0 | 0 | 0 | 0 | 0
Cc1nc(Nc2ncc(C(=O)Nc3c(C)cccc3Cl)s2)cc(N2CCN(CCO)CC2)n1 [dasatinib] | 1.62 | 0.33 | 0.201 | 0.218 | 0.0245 | 102 | 99 | 87.1 | 80.6 | 30.1 | 100 | 93.9 | 85 | 53.9 | 36.8 | 101 | 97.6 | 77 | 45.5 | 33.2 | 99 | 93.1 | 76.1 | 29.6 | 16.9 | 95.1 | 72 | 36.6 | 30.2 | 18.1 | 6.2 | 10.3 | 12.9 | 15.9 | 24.7
CCc1cnn2c(NCc3ccc[n+]([O-])c3)cc(N3CCCC[C@H]3CCO)nc12 [dinaciclib] | 0.0105 | 0.0107 | 0.0147 | 0.044 | 0.0147 | 99.9 | 55.6 | 5.7 | 6.4 | 6.4 | 99.3 | 56 | 3.6 | 4 | 5.4 | 100 | 77.9 | 19.9 | 25.1 | 30.8 | 101 | 100 | 14.8 | 7 | 4.5 | 103 | 83.2 | 39.9 | 39.3 | 39.6 | 34.5 | 35.2 | 28.2 | 27.5 | 21.6
CCOC(=S)SSC(=S)OCC [dixanthogen] | > 10 | > 10 | > 10 | > 10 | > 10 | 101 | 111 | 101 | 95.1 | 88.8 | 104 | 99.7 | 100 | 101 | 104 | 104 | 96.3 | 104 | 118 | 104 | 97.3 | 95.6 | 91.5 | 90.4 | 97.3 | 101 | 106 | 104 | 96 | 103 | 0.1 | 0 | 0 | 0 | 0
N[C@H](C(=O)O)[C@H](O)c1ccc(O)c(O)c1 [droxidopa] | > 10 | > 10 | > 10 | > 10 | > 10 | 90.7 | 95.5 | 98.8 | 114 | 104 | 98 | 95.6 | 97.5 | 97.2 | 100 | 95.4 | 102 | 103 | 96.4 | 102 | 95.1 | 102 | 96.8 | 98.5 | 104 | 98.8 | 98.1 | 99.7 | 87 | 102 | 0 | 0 | 0 | 0 | 0
Cc1cc(Cl)ccc1OCCCC(=O)NO [droxinostat] | > 10 | > 10 | > 10 | > 10 | > 10 | 100 | 92.4 | 90.7 | 97.4 | 87 | 96.9 | 106 | 96.6 | 100 | 79.5 | 104 | 101 | 101 | 102 | 86.5 | 103 | 99.4 | 98.8 | 97 | 86.7 | 96.3 | 92.8 | 88.8 | 97.6 | 86.8 | 0 | 0.6 | 0.1 | 0.3 | 0
O=C(NCCCN1CCOCC1)c1ccc(Cl)cc1 [eprobemide] | > 10 | > 10 | > 10 | > 10 | > 10 | 108 | 107 | 88.6 | 110 | 76.6 | 102 | 92.7 | 103 | 97.4 | 99.5 | 106 | 92.3 | 108 | 103 | 98.8 | 92.1 | 96.3 | 100 | 99.1 | 99.6 | 105 | 87.6 | 105 | 92.2 | 103 | 0.5 | 0 | 0 | 0 | 0
O=C(O)CSCC(=O)NC1CCSC1=O (stereo not given) [erdosteine] | > 10 | > 10 | > 10 | > 10 | > 10 | 90.5 | 102 | 94.3 | 93.8 | 102 | 100 | 105 | 96.2 | 97.9 | 101 | 107 | 102 | 97 | 84.8 | 96.9 | 111 | 96.9 | 104 | 91 | 96.8 | 99.8 | 96 | 102 | 92.9 | 98 | 0 | 0 | 0 | 0 | 0
